The test system of this data set is human peripheral blood mononuclear cells (PBMC). As to the kind of experiment: PBMC cytotoxicity assay (CellTiter-Glo). The class given is cell-based. The settings on record: 2 days, pCC50. Put shortly: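 % cytotoxicity was taken from CellTiter-Glo luminescence, using wells without cells and stimulated DMSO wells as references, and fitted by four-parameter curve to give XC50. Cells were human PBMC at 50,000 per well, activated with 100 ng/ml IFN-γ plus 50 ng/ml LPS. Incubation with 11-point, 3-fold dilution series ran for 2 days at 37 °C.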

The structures appear in SMILES notation.

`CC(C)CN(c1ccc([C@H](C)CC(=O)O)cc1Nc1nnc(C2CC2)s1)C1CCOCC1` [Example 23, (R)-3-(3-((5-cyclopropyl-1,3,4-thiadiazol-2-yl)amino)-4-(isobutyl (tetrahydro-2H-pyran-4-yl)amino)phenyl)butanoic Acid]: the “PBMC TOX PXC50” value was under 5.
As for `CC(C)CN(c1ccc([C@H](C)CC(=O)O)cc1Nc1nc(C(F)(F)F)ns1)C1CCOCC1` [Example 20, (R)-3-(4-(Isobutyl(tetrahydro-2H-pyran-4-yl)amino)-3-((3-(trifluoromethyl)-1,2,4-thiadiazol-5-yl)amino)phenyl)butanoic Acid], the figure is under 5.

Source of the values: patent publication US10899754B2, “Modulators of indoleamine 2,3-dioxygenase” (GLAXOSMITHKLINE INTELLECTUAL PROPERTY DEVELOPMENT LIMITED, priority 2016, dated 2021).
